Assay results reported in publication PMC12367838, “Relevance of kinetic interactions and co-formulants for plant protection product liver toxicity in vitro” (Archives of Toxicology, 2025).

Legend:
[1] = system: HepaRG cells; assay: Neutral red uptake (NRU) cytotoxicity assay; format: cell-based, human; details: 72 h, tested concentration range
Procedure: Wild-type human hepatoma HepaRG cells obtained from Biopredic International (Saint Grégoire, France) were cultivated for 4 weeks in a Binder cell culture incubator maintained at 37 °C in a 5% humidified atmosphere with 5% CO2 before they were employed in this study. The 4 weeks consisted of 2 weeks of proliferation and 2 weeks of differentiation. […]
Cytotoxicity assays were performed in 96-well plates at a density of 9000 cells per well, and test compounds were incubated for 72 h. […] After the 30-min incubation with WST-1, absorbance was measured at 450 nm corrected by a reference at 620 nm (λexc = 450 nm/λemi = 620 nm) using an Infinite M200 PRO plate reader (Tecan; Männedorf, Switzerland). […] The absorbed dye was quantified by fluorescence measurement (λexc = 530 nm/λemi = 645 nm) on an Infinite M200 PRO plate reader (Tecan; Männedorf, Switzerland). Background corrected viability values of both assays were expressed as a percentage of untreated cells. […] Means and standard deviations for each treatment were calculated. […]

[2] = system: HepaRG cells; assay: AdipoRed triglyceride accumulation assay; format: cell-based, human; details: for Relative triglyceride accumulation: related to medium control
Procedure: Different elements of the liver steatosis AOP were evaluated in this study. Transcriptomics was employed as a tool to investigate the expression of liver steatosis-related genes that occur either as MIE (genes related to NR activation) or molecular and cellular KEs. In addition to gene expression, lipid accumulation in HepaRG cells was conducted to cover molecular KEs. Considering that upstream MIEs occur earlier than subsequent downstream KEs (Alarcan et al. [2021]), we applied different time points (24 h for transcriptomics and 72 h for lipid accumulation) to reflect the temporal relationships between biological events.
HepaRG cells were treated in 96-well plates for 72 h with eight different concentrations of the above-mentioned test compounds, with the highest concentration of each being the highest non-cytotoxic concentration. The synthetic LXR and FXR agonist, T0901317, was used as a positive control at a concentration of 10 µM. After the 72-h incubation, cells were washed with 200 µL phosphate-buffered saline (PBS), and then 200 µL PBS containing 5 µg/mL Hoechst 33,342 (Thermo Fisher Scientific; Waltham, Massachusetts, USA) was added to each well. Thereafter, 5 µL of the AdipoRed reagent was added to each well, and the plates were incubated at 37 °C for 10 min. Subsequently, the fluorescence of AdipoRed was measured at λexc = 485 nm/λemi = 572 nm, and Hoechst 33,342 was measured at λexc = 350 nm/λemi = 451 nm on the Infinite M200 PRO plate reader (Tecan; Männedorf, Switzerland). AdipoRed signals were normalized to Hoechst 33,342 signals to compensate for variations in cell number. Relative triglyceride levels were referred to untreated cells. Each concentration was measured in three technical replicates. Three independent biological replicates were performed (n = 3) and means as well as SD were calculated.
A linear mixed-effects ANOVA (α = 0.05) described by Pinheiro and Bates ([2000]) followed by a post-hoc Dunnett test for multiple comparisons of treatment groups versus the control was used for statistical analysis of data from cytotoxicity assay, AdipoRed assay, CYP450 inhibition assay as well as mixture effects. R studio (ver. 4.4.1) was used to determine the effective concentration at relative triglyceride induction fold of 1.5 for each test compound.

C#CCOc1ccc(CCNC(=O)C(OCC#C)c2ccc(Cl)cc2)cc1OC (stereo not shown) [MDP, mandipropamid]
cytotoxicity [1]: not cytotoxic in the tested concentration range | Relative triglyceride accumulation ([2]; 5.00 mg/L, 72 h): 1.2 | Relative triglyceride accumulation ([2]; 6.00 mg/L, 72 h): 1.1 | Relative triglyceride accumulation ([2]; 8.00 mg/L, 72 h): 1.3 | Relative triglyceride accumulation ([2]; 10.0 mg/L, 72 h): 1.3 | Relative triglyceride accumulation ([2]; 12.0 mg/L, 72 h): 1.2 | Relative triglyceride accumulation ([2]; 15.0 mg/L, 72 h): 1.6 | Relative triglyceride accumulation ([2]; 19.0 mg/L, 72 h): 1.8 | EC1.5-fold (effective concentration at 1.5 relative triglyceride induction fold) ([2]; HepaRG cells, 72-h incubation): 14.4 mg/L | EC1.5-fold ([2]; HepaRG cells, 72 h): ≈ 35 µM
